Source: patent US8765755B2, “N-containing heterocyclic compounds” (YM Biosciences Australia Pty Ltd, priority 2007, dated 2014)

What was measured:
[1] = test system: BafT_J2; assay: Cellular screening, BaF3 TEL:JAK2 cells (Alamar Blue); format: cell-based; conditions: Mus musculus, 40 hr incubation
Method: (§1) For screening purposes, compounds were diluted in 96 well plates at a concentration of 20 μM. Plates were warmed at 37° C. for 30 minutes before the assay was performed.
(§2) The coding region encompassing nucleotides 1-487 of TEL was amplified by PCR using the oligonucleotides 5TEL (5′-GGAGGATCCTGATCTCTCTCGCTGTGAGAC-3′) [SEQ ID NO 14] and 3TEL (5′-AGGC GTCGACTTCTTCTTCATGGTTCTG-3′) [SEQ ID NO 15] and U937 mRNA as a template. A BamHI restriction site was incorporated into the 5TEL primer, and a Sal I restriction site was incorporated into the 3TEL primer. The regions encompassing the kinase domain of JAK2 (nucleotides 2994-3914; JAK2F 5′-ACGC GTCGACGGTGCCTTTGAAGACCGGGAT-3′ [SEQ ID NO 16]; JAK2R 5′-ATAGTTTAGCGGCCGCTCAGAATGAAGGTCATTT-3′) [SEQ ID NO 17] and JAK3 (nucleotides 2520-3469; JAK3F 5′-GAAGTCGACTATGCCTGCCAAGACCCCACGATCTT-3′) [SEQ ID NO 18] were generated by PCR using Taq DNA polymerase (Gibco/BRL) and U937 mRNA as a template. A Sal I restriction site was incorporated into the forward primer of JAK2 and JAK3, a Not I site was incorporated into the JAK2 reverse primer and a Xba I site was added to the reverse primer of JAK3.
A TEL/Jak2 fusion was generated by digestion of the TELPCR product with BamH I/Sal I restriction enzymes, digestion of the JAK2 PCR product with Sal I/Not I restriction enzymes, followed by ligation and subcloning of the ligation product into the mammalian expression Vector pTRE 2 (Clontech), which was prepared by digestion with BamH I-Not I restriction enzymes, to give the TEL/Jak2 fusion plasmid pTELJAK2.
(§3) The growth factor dependant myelomonocytic cell line BaF3 bearing the pTET-off plasmid (Clontech) was transfected with either pTELJAK2 or pTELJAK3, and the transfected cells were selected for growth-factor independent cell growth. The BaF3 wild-type cells were cultured in DMEM containing 10% FCS, 10% WEHI 3B conditioned medium. The BaF3 TELJAK cells ([…]) were cultured in DMEM 10% Tet-System Approved FBS (without WEHI 3B conditioned medium).
(§4) Cell suspensions were prepared by harvesting cells from culture. (the cells used in this test were in late log phase growth with high viability.) Cells were diluted in the appropriate growth medium, as described above, to 1.1× final concentration (from 50,000 cell/mL to 200,000 cell/mL, depending on cell line).
(§5) Compounds to be tested were added (10 μL, 10× final concentration) to a flat bottomed 96-well plate. The cellular suspension (90 μL per well) was then added, and the plate incubated for 40 hr at 37° C., 5% CO2. Alamar Blue 10 μL per well was added and the plates returned to the incubator for a further 4-6 hours. The plates were then read at 544 nm.

[2] = test system: BafT_J3; assay: Cellular screening, BaF3 TEL:JAK3 cells (Alamar Blue); format: cell-based; conditions: Mus musculus, 40 hr incubation
Method: as §1, §2
The TEL/Jak3 fusion was prepared by ligation of the JAK3 Sal I/Not I cleaved kinase domain PCR product with the BamH I/Sal I restriction digested TEL product, followed by ligation of the ligation product into the BamH I/Not I digested pTRE2, to give the TEL/Jak3 fusion plasmid pTELJAK3.
as §3, §4, §5

[3] = biological target: T1, human JAK2 (Homo sapiens, UniProt O60674); assay: JAK2 kinase enzyme assay (Alphascreen); format: biochemical; conditions: 80 or 625 um ATP
T1 construct: The kinase domain of human JAK2 was amplified; GST (N); made in house; host or cells: Sf9 (Spodoptera frugiperda) insect cells, baculovirus
Method: (§6) For screening purposes, compounds (in 100% DMSO) were warmed at 37 degrees for at least 20 minutes before use. A […] stock was initially made in assay buffer, where the final concentration of DMSO was 0.3%. The stocks were then diluted in 384 well Optiplates (Packard) where the final concentration of the compound was 5 μM.
The kinase domain of human JAK2 was amplified from U937mRNA using the polymerase chain reaction with the following primers: […]
The JAK2 PCR products were cloned into the pDest20 destination vector (Gibco). The JAK2 plasmid was then transformed into competent DH10Bac cells (Gibco), and the recombinant baculovirus was prepared via Sf9 insect cell transfection.
(§7) Baculovirus preparations from each of the JAK family members were infected into one litre of Sf9 (Spodoptera frugiperda) cells (Invitrogen) grown in SF900II serum free medium (Invitrogen) to a cell density of approximately 2×10^6 cells/ml. Cells were infected with virus at a cell culture to virus stock ratio of 20:1. Cells were harvested and lysed 48 hours post infection. The GST-tagged JAK kinase domains were purified by affinity chromatography on a GSH agarose column (Scientifix).
(§8) Kinase assays were performed in 384 well Optiplates (Packard) using an Alphascreen Protein Tyrosine KinaseP100 detection kit The compounds were pre-incubated with affinity purified PTK domain in the presence of phosphotyrosine assay buffer (10 mM HEPES, pH 7.5, 100 mM MgCl2, 25 mM NaCl, 200 mM sodium vanadate and 0.1% Tween 20) for 20 minutes. The compounds were then incubated with substrate in the presence of either 80 or 625 um ATP for 60 or 90 minutes. The substrate used was either susbtrate-1 with the sequence biotin-EGPWLEEEEEAYGWMDF-NH2 [SEQ. ID. NO. 13] (final concentration 111 μM) or susbtrate-2 substrate with the sequence biotin-EQEDEPEGDYFEWLEPE (final concentration 133 μM). Alphascreen phosphotyrosine acceptor beads followed by streptavidin donor beads at a concentration of 1/100 in stop buffer were added to each well under subdued light and incubated for 2-3 hours. The Alphascreen plates were read on a Packard Fusion Alpha instrument.

[4] = test system: CTLL2; assay: Cellular screening, CTLL2 cells (Alamar Blue); format: cell-based; conditions: Mus musculus, CTLL-2, 40 hr incubation
Method: as §1, §4, §5

[5] = biological target: T2, human JAK3 (Homo sapiens, UniProt P52333); assay: JAK3 kinase enzyme assay (Alphascreen); format: biochemical; conditions: 80 or 625 um ATP
T2 construct: The kinase domain of human JAK3 was amplified; GST (N); made in house; host or cells: Sf9 (Spodoptera frugiperda) insect cells, baculovirus
Method: as §6
The kinase domain of human JAK3 was amplified from U937mRNA using the polymerase chain reaction with the following primers: […]
The JAK3 PCR products were cloned into the pDest20 destination expression vector (Gibco). The JAK3 plasmid was then transformed into competent DH10Bac cells (Gibco), and the recombinant baculovirus was prepared via Sf9 insect cell transfection.
as §7, §8

[6] = test system: BAF3wt; assay: Cellular screening, BaF3 wild-type cells (Alamar Blue); format: cell-based; conditions: Mus musculus, 40 hr incubation
Method: as §1, §3, §4, §5

T1 sequence (O60674 849-1124 limits assumed): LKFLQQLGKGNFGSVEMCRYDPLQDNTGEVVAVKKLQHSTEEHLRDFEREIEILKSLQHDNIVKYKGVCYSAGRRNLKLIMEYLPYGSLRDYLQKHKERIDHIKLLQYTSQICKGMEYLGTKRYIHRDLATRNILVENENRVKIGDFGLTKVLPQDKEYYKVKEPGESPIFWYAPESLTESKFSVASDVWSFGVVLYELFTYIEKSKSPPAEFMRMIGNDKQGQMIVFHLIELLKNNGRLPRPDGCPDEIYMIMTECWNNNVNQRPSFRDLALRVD
T2 sequence (P52333 822-1111 limits assumed): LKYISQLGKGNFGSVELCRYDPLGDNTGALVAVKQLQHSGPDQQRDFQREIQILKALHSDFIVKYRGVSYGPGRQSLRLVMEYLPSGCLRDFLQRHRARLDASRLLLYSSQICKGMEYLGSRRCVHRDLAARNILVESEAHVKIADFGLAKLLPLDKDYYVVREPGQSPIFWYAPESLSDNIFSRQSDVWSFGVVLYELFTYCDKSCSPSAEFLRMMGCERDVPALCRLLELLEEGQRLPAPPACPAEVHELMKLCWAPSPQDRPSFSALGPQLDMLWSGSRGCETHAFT

| Compound | IC50 [1] | IC50 [2] | IC50 [3] | IC50 [4] | IC50 [5] | IC50 [6] |
| --- | --- | --- | --- | --- | --- | --- |
| Nc1ccc(-c2csc3cnc(Nc4ccc(N5CCOCC5)cc4)nc23)cc1 [Compound 2, 7-(4-aminophenyl)-N-(4-morpholinophenyl)thieno[3,2-d]pyrimidin-2-amine] | < 1000 nM | < 1000 nM | < 100 nM | < 1000 nM | < 100 nM | < 1000 nM |
| C=CC(=O)Nc1ccc(-c2csc3cnc(Nc4ccc(N5CCOCC5)cc4)nc23)cc1 [Compound 3, N-(4-(2-(4-morpholinophenylamino)thieno[3,2-d]pyrimidin-7-yl)phenyl)acrylamide] | < 5000 nM | < 1000 nM | < 100 nM | < 1000 nM | < 100 nM | < 5000 nM |
| Nc1cccc(-c2csc3cnc(Nc4ccc(N5CCOCC5)cc4)nc23)c1 [Compound 4, 7-(3-aminophenyl)-N-(4-morpholinophenyl)thieno[3,2-d]pyrimidin-2-amine] | < 1000 nM | < 1000 nM | < 100 nM | < 1000 nM | < 100 nM | < 1000 nM |
| C=CC(=O)Nc1cccc(-c2csc3cnc(Nc4ccc(N5CCOCC5)cc4)nc23)c1 [Compound 5, N-(3-(2-(4-morpholinophenylamino)thieno[3,2-d]pyrimidin-7-yl)phenyl)acrylamide] | < 5000 nM | < 1000 nM | < 100 nM | < 1000 nM | < 100 nM | < 1000 nM |
| COc1cc(-c2csc3cnc(Nc4ccc(N5CCOCC5)cc4)nc23)ccc1N [Compound 10, 7-(4-amino-3-methoxyphenyl)-N-(4-morpholinophenyl)thieno[3,2-d]pyrimidin-2-amine] | < 1000 nM | < 1000 nM | < 100 nM | < 1000 nM | < 100 nM | < 1000 nM |
| CCc1ccccc1-c1csc2cnc(Nc3cccc(N)c3)nc12 [Compound 22, N1-(7-(2-ethylphenyl)thieno[3,2-d]pyrimidin-2-yl)benzene-1,3-diamine] | < 1000 nM | < 5000 nM | < 100 nM | < 1000 nM | < 100 nM | < 5000 nM |
| CCc1ccccc1-c1csc2cnc(Nc3ccc(N4CCOCC4)cc3)nc12 [Compound 29, 7-(2-ethylphenyl)-N-(4-morpholinophenyl)thieno[3,2-d]pyrimidin-2-amine] | < 1000 nM | < 1000 nM | < 100 nM | < 1000 nM | < 100 nM | < 1000 nM |
| CC(=O)Nc1cccc(-c2csc3cnc(Nc4ccc(N5CCOCC5)cc4)nc23)c1 [Compound 30, N-(3-(2-(4-morpholinophenylamino)thieno[3,2-d]pyrimidin-7-yl)phenyl)acetamide] | < 1000 nM | < 1000 nM | < 100 nM | < 5000 nM | < 100 nM | < 1000 nM |
| CS(=O)(=O)N(CC#N)c1ccc(-c2csc3cnc(Nc4ccc(N5CCOCC5)cc4)nc23)cc1 [Compound 32, N-(cyanomethyl)-N-(4-(2-(4-morpholinophenylamino)thieno[3,2-d]pyrimidin-7-yl)phenyl)methanesulfonamide] | < 1000 nM | < 1000 nM | < 100 nM | < 1000 nM | < 100 nM | < 5000 nM |
| Cn1cc(-c2ccc(NS(C)(=O)=O)cc2)c2nc(Nc3ccc(N4CCOCC4)cc3)ncc21 [Compound 35, N-(4-(5-methyl-2-(4-morpholinophenylamino)-5H-pyrrolo[3,2-d]pyrimidin-7-yl)phenyl)methanesulfonamide] | < 5000 nM | < 20000 nM | < 100 nM | < 5000 nM | < 1000 nM | < 5000 nM |
| CC(C)c1ccccc1-c1csc2cnc(Nc3ccc(N4CCOCC4)cc3)nc12 [Compound 37, 7-(2-isopropylphenyl)-N-(4-morpholinophenyl)thieno[3,2-d]pyrimidin-2-amine] | < 1000 nM | < 1000 nM | < 100 nM | < 1000 nM | < 100 nM | < 1000 nM |
| Nc1ccc(-c2csc3cnc(Nc4ccc(N5CCOCC5)cc4)nc23)cc1[N+](=O)[O-] [Compound 44, 7-(4-amino-3-nitrophenyl)-N-(4-morpholinophenyl)thieno[3,2-d]pyrimidin-2-amine] | < 1000 nM | < 5000 nM | < 100 nM | < 5000 nM | < 100 nM | < 5000 nM |
| COc1ncccc1-c1csc2cnc(Nc3ccc(N4CCOCC4)cc3)nc12 [Compound 45, 7-(2-methoxypyridin-3-yl)-N-(4-morpholinophenyl)thieno[3,2-d]pyrimidin-2-amine] | < 1000 nM | < 1000 nM | < 100 nM | < 1000 nM | < 100 nM | < 1000 nM |
| COc1ccc(Nc2ncc3scc(-c4cccnc4OC)c3n2)cc1OC [Compound 52, N-(3,4-dimethoxyphenyl)-7-(2-methoxypyridin-3-yl)thieno[3,2-d]pyrimidin-2-amine] | < 1000 nM | < 1000 nM | < 100 nM | < 1000 nM | < 100 nM | < 1000 nM |
| COc1ccc(-c2csc3cnc(Nc4ccc(OC)c(OC)c4)nc23)c(OC)n1 [Compound 55, N-(3,4-dimethoxyphenyl)-7-(2,6-dimethoxypyridin-3-yl)thieno[3,2-d]pyrimidin-2-amine] | < 5000 nM | < 5000 nM | < 100 nM | < 5000 nM | < 100 nM | < 5000 nM |
